Measurements from ChEMBL document CHEMBL3616370, “Pandalisines A and B, novel indolizidine alkaloids from the leaves of Pandanus utilis” (Bioorg Med Chem Lett, 2015).
The source made the active and inactive calls.

Legend:
Assay type in all cases: functional, cell-based
MDA-MB-231 = assay: Cytotoxicity against human MDA-MB-231 cells at 60 ug/ml after 72 hrs by MTT assay
HepG2 = assay: Cytotoxicity against human HepG2 cells at 60 ug/ml after 72 hrs by MTT assay
A549 = assay: Cytotoxicity against human A549 cells at 60 ug/ml after 72 hrs by MTT assay

Measured: Activity

CC1=C/C(=C2/CCCN3CCC[C@H]23)OC1=O
inactive: all assays above

CC1=C/C(=C2\CCCN3CCC[C@H]23)OC1=O
inactive: all assays above
